ChEMBL document CHEMBL4330150, “Synthesis and biological evaluation of pyrazole linked benzothiazole-β-naphthol derivatives as topoisomerase I inhibitors with DNA binding ability” (Bioorg Med Chem, 2019)
pIC50: −log10 of the molar value. Active and inactive are the calls of the source. No cut-off for these calls is given here.

Experiments:
A549 = experiment: Antiproliferative activity against human A549 cells after 48 hrs by MTT assay; format: functional, cell-based; details: A549, 48 h
MCF7 = experiment: Antiproliferative activity against human MCF7 cells after 48 hrs by MTT assay; format: functional, cell-based; details: MCF7, 48 h
HeLa [1] = experiment: Antiproliferative activity against human HeLa cells after 48 hrs by MTT assay; format: functional, cell-based
HEK293 = experiment: Antiproliferative activity against HEK293 cells after 48 hrs by MTT assay; format: cell-based; details: Homo sapiens, HEK293, 48 h
HeLa [2] = experiment: Cell cycle arrest in human HeLa cells assessed as accumulation at sub-G1 phase at 2.5 uM after 48 hrs by propidium iodide staining based FACS analysis (reference value: 1.69%); format: functional
HeLa [3] = experiment: Cell cycle arrest in human HeLa cells assessed as accumulation at G1 phase at 2.5 uM after 48 hrs by propidium iodide staining based FACS analysis (reference value: 73.5%); format: functional
HeLa [4] = experiment: Cell cycle arrest in human HeLa cells assessed as accumulation at S phase at 2.5 uM after 48 hrs by propidium iodide staining based FACS analysis (reference value: 5.58%); format: functional
HeLa [5] = experiment: Cell cycle arrest in human HeLa cells assessed as accumulation at G2/M phase at 2.5 uM after 48 hrs by propidium iodide staining based FACS analysis (reference value: 13.9%); format: functional
HeLa [6] = experiment: Cell cycle arrest in human HeLa cells assessed as accumulation at sub-G1 phase at 5 uM after 48 hrs by propidium iodide staining based FACS analysis (reference value: 1.69%); format: functional
HeLa [7] = experiment: Cell cycle arrest in human HeLa cells assessed as accumulation at G1 phase at 5 uM after 48 hrs by propidium iodide staining based FACS analysis (reference value: 73.5%); format: functional
HeLa [8] = experiment: Cell cycle arrest in human HeLa cells assessed as accumulation at S phase at 5 uM after 48 hrs by propidium iodide staining based FACS analysis (reference value: 5.58%); format: functional
HeLa [9] = experiment: Cell cycle arrest in human HeLa cells assessed as accumulation at G2/M phase at 5 uM after 48 hrs by propidium iodide staining based FACS analysis (reference value: 13.9%); format: functional
Calf thymus DNA [10] = experiment: Binding affinity to calf thymus DNA assessed as hypochromicity at 10 uM by UV-Visible spectrophotometric method; format: nucleic-acid assay; details: Bos taurus
Calf thymus DNA [11] = experiment: Binding affinity to calf thymus DNA assessed as hypochromicity shift at 10 uM by fluorescence spectral analysis; format: nucleic-acid assay; details: Bos taurus
Calf thymus DNA [12] = experiment: Binding affinity to calf thymus DNA assessed as hypochromicity shift in positive band at DNA to compound ratio of 1:1 by CD spectral analysis; format: nucleic-acid assay; details: Bos taurus
Calf thymus DNA [13] = experiment: Binding affinity to calf thymus DNA assessed as hypochromicity shift in positive band at DNA to compound ratio of 1:2 by CD spectral analysis; format: nucleic-acid assay; details: Bos taurus
Calf thymus DNA [14] = experiment: Binding affinity to calf thymus DNA assessed as hypochromicity shift in negative band at DNA to compound ratio of 1:1 to 1:2 by CD spectral analysis; format: nucleic-acid assay; details: Bos taurus
Calf thymus DNA [15] = experiment: Binding affinity to calf thymus DNA assessed as DNA intercalation by measuring increase in viscosity at 15 uM by Ostwald viscometric method; format: nucleic-acid assay; details: Bos taurus
[16] = biological target: T1, DNA topoisomerase 1 (Homo sapiens) (UniProt P11387); experiment: Inhibition of topoisomerase-1 (unknown origin) at 100 uM using pBR322 DNA as substrate after 30 mins by agarose gel electrophoresis method
T1 sequence (whole entry): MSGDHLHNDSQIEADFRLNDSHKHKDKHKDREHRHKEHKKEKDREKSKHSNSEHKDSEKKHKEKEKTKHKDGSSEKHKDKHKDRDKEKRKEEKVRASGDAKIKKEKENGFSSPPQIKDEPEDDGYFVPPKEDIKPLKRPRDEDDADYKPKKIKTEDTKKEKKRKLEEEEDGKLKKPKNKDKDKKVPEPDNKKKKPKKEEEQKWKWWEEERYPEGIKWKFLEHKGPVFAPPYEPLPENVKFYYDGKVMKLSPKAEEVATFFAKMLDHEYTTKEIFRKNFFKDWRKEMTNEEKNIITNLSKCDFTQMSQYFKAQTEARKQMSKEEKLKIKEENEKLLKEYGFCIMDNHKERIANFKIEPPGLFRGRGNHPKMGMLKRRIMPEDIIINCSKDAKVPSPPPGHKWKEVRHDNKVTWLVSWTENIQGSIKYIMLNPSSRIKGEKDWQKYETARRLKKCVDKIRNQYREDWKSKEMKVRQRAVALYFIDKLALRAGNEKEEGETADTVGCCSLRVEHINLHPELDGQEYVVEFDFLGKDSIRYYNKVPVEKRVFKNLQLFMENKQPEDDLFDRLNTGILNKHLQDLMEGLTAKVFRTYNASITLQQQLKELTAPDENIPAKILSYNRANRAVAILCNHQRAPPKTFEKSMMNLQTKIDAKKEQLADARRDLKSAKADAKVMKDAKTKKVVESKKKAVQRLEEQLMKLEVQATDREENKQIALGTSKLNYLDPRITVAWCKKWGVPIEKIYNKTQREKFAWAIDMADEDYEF

Calf thymus DNA [17] = experiment: Binding affinity to calf thymus DNA assessed as DNA intercalation by measuring increase in viscosity at 5 uM by Ostwald viscometric method; format: nucleic-acid assay; details: Bos taurus

Structure (SMILES)	pIC50 (A549)	pIC50 (MCF7)	pIC50 (HeLa [1])	further results
Oc1ccc2ccccc2c1C(Nc1nc2ccc(Cl)cc2s1)c1cn(-c2ccccc2)nc1-c1ccc(Cl)cc1 (centres undefined)	4.27	4.56	4.43	
O=[N+]([O-])c1cccc(-c2nn(-c3ccccc3)cc2C(Nc2nc3ccc(Cl)cc3s2)c2c(O)ccc3ccccc23)c1 (centres undefined)	4.37	4.70	4.81	
COc1ccc2nc(NC(c3cn(-c4ccccc4)nc3-c3ccc(Cl)cc3)c3c(O)ccc4ccccc34)sc2c1 (centres undefined)	4.46	4.63	5.28	pIC50 (HEK293): 4.25; Activity (HeLa [2]): 2.33%; Activity (HeLa [3]): 66.2%; Activity (HeLa [4]): 8.89%; Activity (HeLa [5]): 19.9%; Activity (HeLa [6]): 2.03%; Activity (HeLa [7]): 66.5%; Activity (HeLa [8]): 9.03%; Activity (HeLa [9]): 20%; Activity (Calf thymus DNA [10]): Active; Activity (Calf thymus DNA [11]): 507 nm; Activity (Calf thymus DNA [12]): Active; Activity (Calf thymus DNA [13]): Active; Activity (Calf thymus DNA [14]): Active; Activity (Calf thymus DNA [15]): inactive; inhibition [16]: Active
COc1ccc2nc(NC(c3cn(-c4ccccc4)nc3-c3cccc([N+](=O)[O-])c3)c3c(O)ccc4ccccc34)sc2c1 (centres undefined)	4.28	4.57	5.21	
Oc1ccc2ccccc2c1C(Nc1nc2ccccc2s1)c1cn(-c2ccccc2)nc1-c1ccc(I)cc1 (centres undefined)	4.64	4.72	5.18	
CN1CCN(c2ccc3nc(-c4ccc5nc(-c6ccc(O)cc6)[nH]c5c4)[nH]c3c2)CC1		4.32	4.63	
Cc1cccc(-c2nn(-c3ccccc3)cc2C(Nc2nc3ccccc3s2)c2c(O)ccc3ccccc23)c1 (centres undefined)	4.73	4.76	5.15	
COc1cccc(-c2nn(-c3ccccc3)cc2C(Nc2nc3ccccc3s2)c2c(O)ccc3ccccc23)c1 (centres undefined)	4.61	4.77	4.83	
Cc1ccc2nc(NC(c3cn(-c4ccccc4)nc3-c3ccc([N+](=O)[O-])cc3)c3c(O)ccc4ccccc34)sc2c1 (centres undefined)	4.54	4.68	5.15	
CN1CCN(c2ccc3[nH]c(-c4ccc5[nH]c(-c6ccc(O)cc6)nc5c4)nc3c2)CC1				Activity (Calf thymus DNA [17]): inactive
Cc1ccc2nc(NC(c3cn(-c4ccccc4)nc3-c3cccc(Cl)c3)c3c(O)ccc4ccccc34)sc2c1 (centres undefined)	4.34	4.30	5.03	
Oc1ccc2ccccc2c1C(Nc1nc2ccccc2s1)c1cn(-c2ccccc2)nc1-c1cccc(Cl)c1 (centres undefined)	4.69	4.69	5.17	
COc1ccc2nc(NC(c3cn(-c4ccccc4)nc3-c3ccc([N+](=O)[O-])cc3)c3c(O)ccc4ccccc34)sc2c1 (centres undefined)	4.65	4.88	5.26	pIC50 (HEK293): 4.33; Activity (Calf thymus DNA [10]): Active; Activity (Calf thymus DNA [11]): 337 nm; Activity (Calf thymus DNA [12]): Active; Activity (Calf thymus DNA [13]): Active; Activity (Calf thymus DNA [14]): Active; Activity (Calf thymus DNA [15]): inactive; inhibition [16]: Active
O=[N+]([O-])c1cccc(-c2nn(-c3ccccc3)cc2C(Nc2nc3ccccc3s2)c2c(O)ccc3ccccc23)c1 (centres undefined)	4.49	4.36	5.09	
Oc1ccc2ccccc2c1C(Nc1nc2ccc(Cl)cc2s1)c1cn(-c2ccccc2)nc1-c1ccc(I)cc1 (centres undefined)	4.54	4.19	4.92	
Cc1ccc(-c2nn(-c3ccccc3)cc2C(Nc2nc3cc(C)c(C)cc3s2)c2c(O)ccc3ccccc23)cc1 (centres undefined)	4.51	4.65	4.75	
COc1ccc2nc(NC(c3cn(-c4ccccc4)nc3-c3cccc(I)c3)c3c(O)ccc4ccccc34)sc2c1 (centres undefined)	4.41	4.70	5.20	

Structure (SMILES)	pIC50 (A549)	pIC50 (MCF7)	pIC50 (HeLa [1])	further results
COc1ccc(-c2nn(-c3ccccc3)cc2C(Nc2nc3ccc(OC)cc3s2)c2c(O)ccc3ccccc23)cc1 (centres undefined)	4.55	4.38	5.03	
COc1ccc2nc(NC(c3cn(-c4ccccc4)nc3-c3ccccc3)c3c(O)ccc4ccccc34)sc2c1 (centres undefined)	4.35	4.39	5.08	
Cc1ccc2nc(NC(c3cn(-c4ccccc4)nc3-c3cccc([N+](=O)[O-])c3)c3c(O)ccc4ccccc34)sc2c1 (centres undefined)	4.24	4.42	5.13	
COc1ccc2nc(NC(c3cn(-c4ccccc4)nc3-c3ccc(F)cc3)c3c(O)ccc4ccccc34)sc2c1 (centres undefined)	4.47	4.77	5.33	pIC50 (HEK293): 4.24; Activity (HeLa [2]): 2.79%; Activity (HeLa [3]): 57.5%; Activity (HeLa [4]): 11.5%; Activity (HeLa [5]): 25.3%; Activity (HeLa [6]): 3.09%; Activity (HeLa [7]): 60%; Activity (HeLa [8]): 5.08%; Activity (HeLa [9]): 28.2%; Activity (Calf thymus DNA [10]): Active; Activity (Calf thymus DNA [11]): 507 nm; Activity (Calf thymus DNA [12]): Active; Activity (Calf thymus DNA [13]): Active; Activity (Calf thymus DNA [14]): Active; Activity (Calf thymus DNA [15]): inactive; inhibition [16]: Active
Cc1ccc(-c2nn(-c3ccccc3)cc2C(Nc2nc3ccccc3s2)c2c(O)ccc3ccccc23)cc1 (centres undefined)	4.24	4.88	5.09	
Oc1ccc2ccccc2c1C(Nc1nc2ccc(Cl)cc2s1)c1cn(-c2ccccc2)nc1-c1ccc(F)cc1 (centres undefined)	4.49	4.66	4.52	
Cc1cc2nc(NC(c3cn(-c4ccccc4)nc3-c3ccc([N+](=O)[O-])cc3)c3c(O)ccc4ccccc34)sc2cc1C (centres undefined)	4.38	4.39	4.83	
CC[n+]1c(-c2ccccc2)c2cc(N)ccc2c2ccc(N)cc21				Activity (Calf thymus DNA [17]): Active
O=[N+]([O-])c1ccc(-c2nn(-c3ccccc3)cc2C(Nc2nc3ccc(Cl)cc3s2)c2c(O)ccc3ccccc23)cc1 (centres undefined)	4.24	4.41	4.87	
COc1cccc(-c2nn(-c3ccccc3)cc2C(Nc2nc3ccc(OC)cc3s2)c2c(O)ccc3ccccc23)c1 (centres undefined)	4.06	4.20	4.98	
Oc1ccc2ccccc2c1C(Nc1nc2ccc(Cl)cc2s1)c1cn(-c2ccccc2)nc1-c1cccc(Cl)c1 (centres undefined)	4.48	4.76	4.74	
Oc1ccc2ccccc2c1C(Nc1nc2ccc(Cl)cc2s1)c1cn(-c2ccccc2)nc1-c1ccccc1 (centres undefined)	4.29	4.44	4.90	
COc1ccc(-c2nn(-c3ccccc3)cc2C(Nc2nc3ccccc3s2)c2c(O)ccc3ccccc23)cc1 (centres undefined)	4.58	4.76	5.03	
O=[N+]([O-])c1ccc(-c2nn(-c3ccccc3)cc2C(Nc2nc3ccccc3s2)c2c(O)ccc3ccccc23)cc1 (centres undefined)	4.38	4.83	5.17	
COc1cccc(-c2nn(-c3ccccc3)cc2C(Nc2nc3ccc(Cl)cc3s2)c2c(O)ccc3ccccc23)c1 (centres undefined)	4.30	4.44	4.52	
Oc1ccc2ccccc2c1C(Nc1nc2ccccc2s1)c1cn(-c2ccccc2)nc1-c1ccccc1 (centres undefined)	4.44	4.31	4.76	
